Literature values in patent publication US20230190651A1, “Topical Aerosol Foams” (ARCUTIS BIOTHERAPEUTICS, INC., priority 2021, published 2023).
Counter-ions that a name gives are not always drawn.

Row | Molecule | Water Solubility
1 | O=C(O)CCCCCCCC(=O)O [azelaic acid] | 2,140 mg/liter
2 | C=C1/C(=C\C=C2/CCC[C@]3(C)[C@@H]([C@H](C)/C=C/[C@@H](O)C4CC4)CC[C@@H]23)C[C@@H](O)C[C@@H]1O [calcipotriene] | 13.5 mg/L
3 | CCC[C@@H]1C[C@@H](C(=O)N[C@@H]([C@H]2O[C@H](SC)[C@H](OP(=O)(O)O)[C@@H](O)[C@H]2O)[C@H](C)Cl)N(C)C1 [clindamycin phosphate] | 250,000 mg/liter
4 | CCC(=O)O[C@]1(C(=O)CCl)[C@@H](C)C[C@H]2[C@@H]3CCC4=CC(=O)C=C[C@]4(C)[C@@]3(F)[C@@H](O)C[C@@]21C [clobetasol propionate] | 4 mg/L
5 | CC1(C)O[C@@H]2C[C@H]3[C@@H]4CCC5=CC(=O)C=C[C@]5(C)[C@H]4[C@@H](O)C[C@]3(C)[C@]2(C(=O)CO)O1 [desonide] | 59 mg/L
6 | CCC(=O)O[C@]1(C(=O)CCl)[C@@H](C)C[C@H]2[C@@H]3C[C@H](F)C4=CC(=O)C=C[C@]4(C)[C@@]3(F)[C@@H](O)C[C@@]21C [halobetasol propionate] | 14 mg/L
7 | CC(=O)N1CCN(c2ccc(OCC3COC(Cn4ccnc4)(c4ccc(Cl)cc4Cl)O3)cc2)CC1 (stereo not drawn) [ketoconazole] | 0.09 mg/L
8 | Cc1cc(C(C)(C)C)c(O)c(C)c1CC1=NCCN1 [oxymetazoline hydrochloride] | 145,000 mg/liter
9 | O=C(Nc1c(Cl)cncc1Cl)c1ccc(OC(F)F)c(OCC2CC2)c1 [roflumilast] | 0.54 mg/L
10 | CCOC(=O)c1ccc(C#Cc2ccc3c(c2)C(C)(C)CCS3)nc1 [tazarotene] | 32 mg/L
11 | NC(N)=O [urea] | 1,190,000 mg/liter
12 | ivermectin | 4 mg/L
